Experimental data reported in patent US20100249165A1, “PDZ DOMAIN MODULATORS” (University of Copenhagen, priority 2007, published 2010).
“Also recorded” adds a separate entry of the source. Peptide text beside a SMILES is read from it.

Columns and labels:
[1] = molecular target: T1, PICK1 GluR2 interaction (Rattus norvegicus, UniProt Q9EP80); test: FRET between eCFP-GluR2 C29 and eYFP-PICK1 in COS7 cells; format: cell-based; settings: compound added 20 min prior to image acquisition
T1 construct: expressed in transfected cells; host or cells: COS7 cells, transient transfection
T1 sequence (Q9EP80 whole entry): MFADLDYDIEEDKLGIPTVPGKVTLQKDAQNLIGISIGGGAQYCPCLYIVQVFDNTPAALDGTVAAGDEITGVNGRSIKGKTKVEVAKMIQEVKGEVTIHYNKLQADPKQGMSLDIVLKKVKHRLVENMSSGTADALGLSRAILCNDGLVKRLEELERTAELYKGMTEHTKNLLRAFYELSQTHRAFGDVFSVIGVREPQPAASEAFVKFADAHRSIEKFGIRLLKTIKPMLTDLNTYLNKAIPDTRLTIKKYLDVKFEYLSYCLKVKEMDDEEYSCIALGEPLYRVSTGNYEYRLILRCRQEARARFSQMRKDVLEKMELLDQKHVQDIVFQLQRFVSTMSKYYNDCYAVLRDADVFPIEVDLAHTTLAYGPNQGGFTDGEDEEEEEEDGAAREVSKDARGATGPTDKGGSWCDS
Protocol: To determine whether a compound is able to block binding of a PD ligand, such as the c-terminus of the AMPA receptor GluR2 subunit, to the PICK1 PDZ domain in a cellular system a Fluorescent Resonance Energy Transfer (FRET) assay can be employed. PICK1 is fused to eYFP (eYFP-PICK1) and the C-terminal 29 residues of the AMPA receptor subunit GluR2 is fused to eCFP (eCFP-GluR2 C29). As a control for specificity of the FRET signal an alanine is added to the C-terminal 29 residues of GluR2 (eCFP-GluR2 C29+A) to disrupt the PDZ interaction. […]
Fluorescence resonance energy transfer (FRET; see Schmid and Sitte, 2003) is measured with an epi-fluorescence microscope (Carl Zeiss TM210, Germany) using the “three-filter method” according to Xia and Liu (2001). […]
Media are replaced by Krebs-HBS buffer (10 mM HEPES/120 mM NaCl/3 mM KCl/2 mM CaCl2/2 mM MgCl2), and images are taken using a 63× oil objective and a LUDL filter wheel that allows for rapid exchange of filters (less than 100 ms). The system is equipped with the following fluorescence filters: CFP filter (ICFP; exc.: 436 nm, dichr.: 455 nm, em.: 480 nm), YFP filter (IYFP; exc.: 500 nm, dichr.: 515 nm, em.: 535 nm) and FRET filter (IFRET: excitation=436 nm, dichroic mirror=455 nm, emission=535 nm). […] Background fluorescence is subtracted from all images and fluorescence intensity was measured in cytosolic regions in all images. […]

[2] = molecular target: T2, PDZ domain of PICK1 (Rattus norvegicus, UniProt Q9EP80); test: Fluorescence polarization competition binding to PICK1 (Oregon Green-labeled DAT peptide tracer); settings: for Ki: competition with DAT13 OrG tracer 40 nM, fixed subsaturating PICK1, 15 min incubation, means of three independent experiments, read-out: Ki (μM) [SE interval]; for potency in displacing the fluorescently tagged tracer (in words): unlabeled peptide titrated against fixed PICK1 and labeled DAT peptide
T2 construct: The entire coding region of rat PICK1 (residues 2-416); GST (N, cleaved yes); made in house; host or cells: E. coli BL21(DE3) pLysS
T2 sequence (Q9EP80 2-416): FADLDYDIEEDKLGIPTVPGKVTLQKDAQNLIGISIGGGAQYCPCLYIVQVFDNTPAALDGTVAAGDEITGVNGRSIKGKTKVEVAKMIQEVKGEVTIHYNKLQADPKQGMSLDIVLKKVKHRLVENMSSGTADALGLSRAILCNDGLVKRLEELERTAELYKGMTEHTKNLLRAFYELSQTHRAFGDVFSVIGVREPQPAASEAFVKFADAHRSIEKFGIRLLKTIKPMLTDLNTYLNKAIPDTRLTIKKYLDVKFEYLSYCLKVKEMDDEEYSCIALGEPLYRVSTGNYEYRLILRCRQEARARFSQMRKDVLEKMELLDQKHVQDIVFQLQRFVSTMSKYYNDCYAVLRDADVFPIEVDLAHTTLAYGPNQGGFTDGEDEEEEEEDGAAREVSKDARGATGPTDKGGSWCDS
Source text: (§1) The entire coding region of rat PICK1 (residues 2-416) is amplified from a pCINEO vector by PCR using pfu polymerase according to the instructions by the manufacturer (Stratagene, La Jolla, Calif.). The primers used introduce a 5′ restriction site for MunI and 3′ restriction site for AvrII. The PCR fragment is cleaved with MunI and AvrII and cloned into the reading frame of the pET41a vector (Novagen, Madison, Wis.) producing an N-terminally glutathione-S-transferase (GST) fusion of PICK1. The GST-PICK1 fusion was expressed in E. coli BL21(DE3) pLysS (Novagen). The transformed bacteria are grown to OD600 0.6 and expression of the fusion protein is induced with isopropyl-β-D1-thiogalactopyranoside (105 μM) overnight at 30° C. The bacteria are lysed by freezing and thawing in TBS buffer containing [50 mM Tris pH 7.4, 125 mM NaCl, 1% TX-100, 20 μg/mL DNAse I, 1 mM DTT (Sigma)]. The lysate is cleared by centrifugation (rotor SS-34, 18000 rpm, 48000×g, 30 min). The supernatant is incubated with glutathione-sepharose beads (Amersham Biosciences) under slow rotation for 90 minutes at 4° C. The beads are pelleted at 3500 g for 5 minutes and washed in TBS buffer containing [50 mM Tris pH 7.4, 125 mM NaCl, 0.1% TX-100, 1 mM DTT] by three batch washes. The protein is separated from the GST domain by cleavage with thrombin protease (Novagen) in the above wash buffer at 4° C. overnight. Samples of 10 μl are taken from the protein solution for determination of protein concentration and for analysis by SDS-PAGE. Protein determinations are performed using the BCA Protein Assay Reagent kit (Pierce Biotechnology, Inc, Rockford, Ill.) according to manufactures protocol using bovine serum albumin as standard. Gels are stained with GelCode Blue Stain Reagent (Pierce Biotechnology) in order to inspect size, integrity and purity of the protein (Madsen et al., JBC, 280, 20539-48, 2005).
This assay is used to screen for compounds binding to the PDZ binding groove in PICK1. The assay is based on the predicted decrease in rotational diffusion of a fluorescently labeled peptide upon its binding to a larger protein. The decrease in rotational diffusion upon binding of a fluorescent labeled peptide to PICK1 can be detected as an increase in fluorescence polarization (FP). Binding of a small-molecule compound to the PDZ binding groove can be detected by its ability to displace the fluorescently labeled peptide resulting in a decreased in FP (Madsen et al., JBC, 280, 20539-48, 2005).
To perform the assay, compounds are loaded (10 μl of each) in microtiter-plates (88 compounds per 96 well plate) (Corning) at a concentration of 1 mM in DMSO. To each well is added 90 μl buffer containing Tris base (50 mM), NaCl (125 mM), TX-100 (0.1%), PICK1 (0.45 μM) and fluorescently labeled peptide. This peptide corresponds to the C-terminus of a protein that binds to the PICK1 PDZ domain. For example, the peptide can correspond to the last 13 C-terminal residues of the DAT, of protein kinase Cα or of the GluR2 subunit of the AMPA reaceptor. The peptide can be labeled with any fluorophore. For example it can be labeled with a sulfhydryl-reactive derivative of Oregon Green via a cysteine introduced in the peptide. The peptide is used in a concentration of about 40 nM. The final concentration of the compounds in the initial screen is 100 μM. After approximately 15 min of incubation at […] the plates are analyzed in a Chameleon plate-reader (HIDEX) in the FP mode using a 488 nm excitation filter and a 535 nm long pass emission filter. Each measurement is an average of 100 flashes and is carried out four times. FP is calculated according to the equation FP=(IV−g*IH)/(IV+g*IH). As negative and positive controls, respectively, pure DMSO and DMSO with unlabeled DAT peptide (20 μM final conc.) are measured in parallel. All compounds are tested twice on separate plates.

[3] = molecular target: T3, interaction between PICK1 and a DAT-peptide fused to GST (Rattus norvegicus, UniProt Q9EP80); test: GST-DAT pull-down assay of PICK1; format: binding; settings: PICK1 band on SDS-PAGE compared with control pull-down
T3 construct: The entire coding region of rat PICK1 (residues 2-416); GST (N, cleaved yes); made in house; host or cells: E. coli BL21(DE3) pLysS
T3 sequence (Q9EP80 2-416): as above
Protocol: To verify binding of active compounds identified in the FP screen, a biochemical pulldown assay can be employed.
A fusion between GST and the 24 C-terminal amino acids of the dopamine transporter (GST DAT C24) is expressed in BL21(DE3)pLysS (Novagen) using the pET41a vector (Novagen, Madison, Wis.) and purified as described for PICK1 but without digestion with thrombin.
5 μl dry volume of glutathione-coated sepharose beads (Pharmacia) with bound GST alone or GST DAT C24 are suspended in 200 μl TBS buffer containing as follows [50 mM Tris pH 7.4, 125 mM NaCl, 0.1% TX-100, 1 mM DTT (Sigma) and PICK1 0.5 μM]. The compounds to be tested are added in DMSO to a final concentration of 200 μM (2% DMSO final concentrtaion). The last 11 amino acids of the C-terminus of the GLT1b glutamate transporter (60 μM final) and pure DMSO (2%) can be used as a positive and negative control, respectively.
The samples are incubated at 4° C. under slow rotation for 30 min. The beads are centrifuged at 4000 g for 5 min and subsequently washed in TBS buffer and recentrifuged. The beads containing bound protein are eluted in loading buffer and analyzed by 12% SDS-PAGE and proteins are stained with Gelcode blue stain reagent (Pierce). Active compounds i.e. a blocked pull-down are recognized by a reduced PICK1 band on the SDS-PAGE gel compared to the control pull-down. […]

[4] = molecular target: T4, PICK1 (Rattus norvegicus, UniProt Q9EP80); test: Fluorescence polarization saturation binding of fluorescently labeled peptides to PICK1
T4 construct: The entire coding region of rat PICK1 (residues 2-416); GST (N, cleaved yes); made in house; host or cells: E. coli BL21(DE3) pLysS
T4 sequence (Q9EP80 2-416): as above
Source text: as §1, with “Samples of 10 μl are taken from the protein solution for determination of protein concentration and for analysis by SDS-PAGE. Protein determinations are performed using the BCA Protein Assay Reagent kit (Pierce Biotechnology, Inc, Rockford, Ill.) according to manufactures protocol using bovine serum albumin as standard. Gels are stained with GelCode Blue Stain Reagent (Pierce Biotechnology) in order to inspect size, integrity and purity of the protein (Madsen et al., JBC, 280, 20539-48, 2005).” left out

Compound: CCOC(=O)NC(=O)/C(C#N)=C\c1ccc(Cl)c(Cl)c1 [j, [(Z)-2-Cyano-3-(3,4-dichlorophenyl)-acryloyl]-carbamic acid ethyl ester]
- FRET between eYFP-PICK1 and eCFP-GluR2 C29 (in words) ([1]; compared to vehicle (1% DMSO)): specifically reduced; also recorded: significantly reduced
- FRET between eYFP-PICK1 and eCFP-GluR2 C29+A (in words) ([1]; specificity control construct): no effect
- Ki [2]: 40 µM
- pull-down of PICK1 by GST-DAT (in words) [3]: inhibition; also recorded: inhibited

Compound: CC(C)C[C@H](NC(=O)[C@H](Cc1c[nH]c2ccccc12)NC(=O)[C@H](Cc1c[nH]cn1)NC(=O)[C@H](CCCNC(=N)N)NC(=O)[C@H](CC(C)C)NC(=O)[C@@H](NC(=O)[C@H](Cc1ccccc1)NC(=O)[C@H](CCC(N)=O)NC(=O)[C@H](CCCNC(=N)N)NC(=O)[C@@H](NC(=O)[C@@H](N)CCC(=O)O)C(C)C)[C@@H](C)O)C(=O)N[C@@H](CCCCN)C(=O)N[C@H](C(=O)O)C(C)C [DAT peptide, reference compound] (H-EVRQFTLRHWLKV-OH; N-terminus and C-terminus assumed)
- potency in displacing the fluorescently tagged tracer (in words) [2]: more than one order of magnitude more potent

Compound: CC(C)(C)c1ccc(O)c(/N=C/c2cc(N=Nc3ccc(Cl)cc3)ccc2O)c1 [q, 4-tert-Butyl-2-{[1-[5-(4-chloro-phenylazo)-2-hydroxy-phenyl]-meth-(E)-ylidene]-amino}-phenol]
- Ki [2]: 19.1 µM

Compound: CCOC(=O)c1ccc(-c2ccc(/C=C3/C(=O)NN(c4ccc(C)c(Cl)c4)C3=O)o2)cc1 [t, 4-{5-[1-(3-Chloro-4-methyl-phenyl)-3,5-dioxo-pyrazolidin-(4Z)-ylidenemethyl]-furan-2-yl}-benzoic acid ethyl ester]
- Ki [2]: 13.7 µM

Compound: O=C1C(=Cc2cc(Br)ccc2OCc2ccccc2)C(=O)c2ccccc21 [v, 2-(2-Benzyloxy-5-bromo-benzylidene)-indan-1,3-dione]
- Ki [2]: 7.7 µM

Compound: β2 AR peptide: peptide corresponding to the 13 C-terminal residues of the β2 AR, type I PDZ binding sequence -DSLL; specificity control (SQGRNCSTNDSLL; UniProt P07550 401-413, looked up, fragment) [reference compound]
- apparent affinity (in words) ([4]; fluorescently labeled peptide): very low apparent affinity
- potency in displacing the fluorescently tagged tracer (in words) [2]: much less potent

Compound: CCOc1cc(Cl)c(Cl)c(C=O)c1O [d, 2,3-Dichloro-5-ethoxy-6-hydroxy-benzaldehyde]
- Ki [2]: 67 µM

Compound: PKCα peptide: peptide corresponding to the 13 C-terminal residues of PKCα, type I PDZ binding sequence -QSAV (NPQFVHPILQSAV; UniProt P17252 660-672, looked up, fragment)
- fold lower apparent affinity than the DAT peptide [4]: ~10 fold

Compound: O=C1C(=O)c2cc([N+](=O)[O-])ccc2-c2ccccc21 [w, 2-Nitro-phenanthrene-9,10-dione]
- Ki [2]: 4.4 µM
